In one test the target is recombinant α-synuclein fibrils (Homo sapiens, UniProt P37840). Nature of the test: radioactive competitive binding assay with [^3H]BF2846 (Tables 1 and 2: or [^18F]7j with LBD-amplified fibrils). To be noted: Table 1; vs. [^3H]BF2846 or [^18F]7j as radioligand; NB = no binding affinity measurable; read-out: Ki. As for the experimental part: Three concentrations of the test compounds (10 nM, 100 nM, and 1 μM) were selected and individually mixed with [^3H]BF2846 (∼4 nM). Each mixture was then separately added to 50 nM of recombinant α-syn fibrils in a working buffer (50 mM Tris-HCl, 0.01% bovine serum albumin (BSA)). The mixture (150 μL) was gently mixed via agitation, covered, and then incubated at 37 °C for 1.5 h in a non-binding 96-well plate (Corning Inc., Corning, NY, USA; catalog no. 3605). The mixture was filtered through a Unifilter-96 harvesting system (PerkinElmer Inc., Waltham, MA, USA) and then washed three times with 250 μL of ice-cold buffer containing 10 mM Tris-HCl (pH 7.4), 15 mM NaCl, and 20% EtOH. Next, 50 μL of scintillation cocktail (MicroScint-20, PerkinElmer) was added to the collected filtrate and counted on a Microbeta system (PerkinElmer Inc., Waltham, MA, USA). The total binding was measured in the absence of the tested compounds, and non-specific binding was defined by the presence of 100 nM of unlabeled BF2846 in the working buffer.
For the full curve of α-syn competition binding, [^3H]BF2846 (∼4 nM) was incubated with fixed concentrations of 50 nM α-syn fibrils and ten concentrations of the tested compounds (0.05−1000 nM). All data points were collected in three individual experiments. The equilibrium inhibition constants, Ki values, were obtained from EC50 values using the equation Ki = EC50/(1 + [radioligand]/Kd) via non-linear regression from GraphPad Prism v.9.3.1 (GraphPad Software, San Diego, CA, USA) […]
In addition, competition assays were performed with LBD-amplified fibrils and [^18F]TZ61-44 with slight modifications. The method used to produce LBD-amplified fibrils is described by Dhavale et al., and the source of the tissue was the Banner Sun Health Research Institute Brain and Body Donation Program of Sun City, Arizona. Each test compound concentration (0.001–1 µM) was individually mixed with [^18F]TZ61-44 (2 nM), and the resulting mixture was then added to 25 nM of LBD-amplified fibrils in 30 mM of Tris-HCl buffer (pH 7.4) containing 0.1% BSA. The mix was incubated for 1 h with shaking. The samples were then transferred to Multiscreen FB filter plates (Catalog MSFBN6B50, MilliporeSigma) and washed three times with cold (4 °C) buffer. The glass fiber filters containing fibril-bound radioligands were removed and counted immediately in a PerkinElmer (1450-021) Trilux MicroBeta Liquid Scintillation counter using 150 µL of Optiphase Supermix cocktail (Perkin Elmer). All data points were obtained in triplicate. The data were analyzed using Graphpad Prism software (version 10) to the obtain EC50 and Ki values by fitting the data to a one-site competition model. The synthesis of the tested compounds is described in the Supporting Information. […]
6. Alpha-Synuclein Binding Affinity Studies a). Determination of α-synuclein binding activity using radioactive competitive assay [ 3H]BF2846 Three concentrations of test compounds (10nM, 100nM, and 1μM) were selected and individually mixed with [3H]BF2846 ( ∼4 nM). Each mixture was then separately added to 50 nM of recombinant α-syn fibrils in a working buffer (50 mM Tris-HCl, 0.01% bovine serum albumin (BSA)). The mixture (150 μL) was gently mixed by agitation, covered, and then incubated at 37°C for 1.5 h in a nonbinding 96 well plate (Corning, 3605). The mixture was filtered through a Unifilter – 96 harvesting system (PerkinElmer) and then washed three times with 250 μL of ice-cold buffer containing 10 mM Tris – HCl (pH7.4), 15mM NaCl, and 20% EtOH. 50μL of scintillation cocktail (MicroScint-20, PerkinElmer) was added to the collected filtrate and counted on a Microbeta system (PerkinElmer). Total binding was measured in the absence of tested compounds, and nonspecific binding was defined by the presence of 100 nM unlabeled BF2846 in the working buffer. The data analysis was carried out in the following equation and graphically presented with a heatmap. […]
As to `COc1ccc(Nc2ccc3ccncc3c2)cn1` [Compound 3f], the Ki is greater than 1000 nM.
On the same count and under the same terms, under `COc1ccc(Nc2ccc3ccccc3n2)cn1` [Compound 3a] stands roughly 100 nM.
`COc1ccc(Nc2ccc3cccnc3c2)cn1` [Compound 3g]: the inhibitory constant (Ki) was greater than 1000 nM.
Same read-out and setting: the value for `COc1ccc(Nc2ccc3ncccc3c2)cn1` [Compound 3d] was greater than 1000 nM; that for `COc1ccc(Nc2cnc3ccccc3c2)cn1` [Compound 3c] was 418 nM; that for `COc1ccc(Nc2ccc3cnccc3c2)cn1` [Compound 3e] was 46 nM.

Staying with this test, now noted: Table 2; [^3H]BF2846 or [^18F]7j indirect competitive binding assay; read-out: Ki.
For the compound `COc1ccc(Nc2ccc3ccc(F)cc3n2)cn1` [Compound 5e], the Ki was determined as 53 nM.
Turning to `COc1ccc(Nc2cc(F)c3ccccc3n2)cn1` [Compound 5b], the inhibition constant (Ki) is 65 nM.
Take `COc1ccc(Nc2ccc3cc(N)ccc3n2)cn1` [Compound 7c]: the Ki came out at 82 nM.
As to `COc1ccc2nc(Nc3ccc(OC)nc3)ccc2c1` [Compound 7f], the Ki came out at 4.6 nM.
As to `COc1ccc(Nc2ccc3cc([N+](=O)[O-])ccc3n2)cn1` [Compound 7a], the Ki stood at 21 nM.
Still for that read-out and setting: the value for `COc1ccc(Nc2ccc3c(F)cccc3n2)cn1` [Compound 5c] was 33 nM; that for `COc1ccc(Nc2ccc3cc(F)ccc3n2)cn1` [Compound 5d] was 27 nM; that for `COc1ccc(Nc2ccc3cc(OC(F)(F)F)ccc3n2)cn1` [Compound 7h] was roughly 100 nM.
On the same count and under the same terms, under `COc1ccc(Nc2ccc3cc(OCCF)ccc3n2)cn1` [Compound 7j] stands 6.4 nM; under `COc1ccc(Nc2ccc3cc(OS(=O)(=O)F)ccc3n2)cn1` [Compound 7i], 320 nM.
On the same count and under the same terms, under `COc1ccc(Nc2ccc3cc(O)ccc3n2)cn1` [Compound 7e, 2-((6-Methoxypyridin-3-yl)amino)quinolin-6-ol] stands 70 nM; under `COc1ccc(Nc2ccc3cc(OC(F)F)ccc3n2)cn1` [Compound 7g], 23 nM.
In the case of `COc1ccc(Nc2ccc3cccc(F)c3n2)cn1` [Compound 5f], the inhibition constant (Ki) came out at 41 nM.

Still in this test, the particulars now being: Table 3; [^3H]BF2846 indirect competitive binding assay; read-out: Ki.
As for `COc1ccc(Nc2ccc3cc(OCc4cccnc4)ccc3n2)cn1` [Compound 8e], the inhibitory constant (Ki) is 24 nM.
Still for that read-out and setting: under `COc1ccc2nc(Nc3ccc(OC(F)(F)F)nc3)ccc2c1` [Compound 7q] stands 10 nM.
For the compound `COc1ccc(COc2ccc3nc(Nc4ccc(OC)nc4)ccc3c2)cc1` [Compound 8f], the Ki was 20 nM.
On the same count and under the same terms, under `COc1cccc(COc2ccc3nc(Nc4ccc(OC)nc4)ccc3c2)c1` [Compound 8g] stands 36 nM; under `FCCOc1ccc2nc(Nc3cccnc3)ccc2c1` [Compound 7t], greater than 500 nM.
Consider `COc1ccc(Nc2ccc3cc(OCc4ccc(F)cc4)ccc3n2)cn1` [Compound 8h], for which the Ki came to 66.3 nM.
Consider `COc1ccc(Nc2ccc3cc(OCc4ccccc4)ccc3n2)cn1` [Compound 8c], for which the Ki stood at 47.7 nM.
Same read-out and setting: the value for `COc1ccc(Nc2ccc3cc(OC/C=C/I)ccc3n2)cn1` [Compound 8i] was 5 nM; that for `COc1ccc(Nc2ccc3cc(OCC4CCCCC4)ccc3n2)cn1` [Compound 8b] was greater than 500 nM; that for `COc1ccc(Nc2ccc3cc(OCC4COC4)ccc3n2)cn1` [Compound 8a] was greater than 500 nM.
In the case of `COc1ccc(Nc2ccc3nc(Nc4ccc(OC)nc4)ccc3c2)cn1` [Compound 8j], the Ki is greater than 1000 nM.
The same measure, in the same setting: under `Cc1ccc(Nc2ccc3cc(OCCF)ccc3n2)cn1` [Compound 7s] stands 26.1 nM; under `COc1ccc2nc(Nc3ccc(F)nc3)ccc2c1` [Compound 7n], 397 nM; under `FCCOc1ccc2nc(Nc3ccc(C(F)(F)F)nc3)ccc2c1` [Compound 7p], 81 nM.
On to `COc1ccc(Nc2ccc3cc(OCC(F)(F)F)ccc3n2)cn1` [Compound 7u], for which the Ki turned out to be 44.6 nM.
Still for that read-out and setting: the value for `COc1ccc2nc(Nc3ccc(SC)nc3)ccc2c1` [Compound 7r] was 197 nM.
On the same count and under the same terms, under `COc1ccc(Nc2ccc3cc(OCCOCCOCCOCCF)ccc3n2)cn1` [Compound 7m] stands 42 nM; under `COc1ccc2nc(Nc3ccc(C(F)(F)F)nc3)ccc2c1` [Compound 7o], 182 nM.
Consider `COc1ccc(Nc2ccc3cc(OCCOCCF)ccc3n2)cn1` [Compound 7k], for which the inhibition constant (Ki) stood at 50 nM.
`COc1ccc(Nc2ccc3cc(OCCOCCOCCF)ccc3n2)cn1` [Compound 7l]: the inhibition constant Ki was determined as 49 nM.

The same test, now with this note: [^3H]BF2846 competitive assay; read-out: Ki value for α-synuclein fibrils.
For `COc1ccc(Nc2ccc3ccccc3n2)cn1` [Compound 3a], the inhibition constant Ki was 100 nM.
Take `COc1ccc(Nc2ccc3cc(OC(F)(F)F)ccc3n2)cn1` [Compound 7h]: the Ki came to 100 nM.

The values above are taken from publication PMC12293736, “Discovery of N-(6-Methoxypyridin-3-yl)quinoline-2-amine Derivatives for Imaging Aggregated α-Synuclein in Parkinson’s Disease with Positron Emission Tomography” (Cells, 2025).
